Measured values as given in ChEMBL document CHEMBL1201862, “PubChem BioAssay data set” (2004).
Activity calls are given as the source filed them.

What was measured:
[1] = SAR analysis of small molecule activators of Apaf-1 using a LZ-Caspase-9/Caspase-3 Fluorescent Selectivity assay - Set 2.; format: functional; conditions: read-out: EC50_Mean
[2] = target: T1, Apoptotic protease-activating factor 1 (Homo sapiens, UniProt O14727); test: SAR analysis of small molecule Activators of Apaf-1 in a Fluorescent assay - set 2.; format: functional; conditions: read-out: EC50_Mean
T1 sequence (O14727 whole entry): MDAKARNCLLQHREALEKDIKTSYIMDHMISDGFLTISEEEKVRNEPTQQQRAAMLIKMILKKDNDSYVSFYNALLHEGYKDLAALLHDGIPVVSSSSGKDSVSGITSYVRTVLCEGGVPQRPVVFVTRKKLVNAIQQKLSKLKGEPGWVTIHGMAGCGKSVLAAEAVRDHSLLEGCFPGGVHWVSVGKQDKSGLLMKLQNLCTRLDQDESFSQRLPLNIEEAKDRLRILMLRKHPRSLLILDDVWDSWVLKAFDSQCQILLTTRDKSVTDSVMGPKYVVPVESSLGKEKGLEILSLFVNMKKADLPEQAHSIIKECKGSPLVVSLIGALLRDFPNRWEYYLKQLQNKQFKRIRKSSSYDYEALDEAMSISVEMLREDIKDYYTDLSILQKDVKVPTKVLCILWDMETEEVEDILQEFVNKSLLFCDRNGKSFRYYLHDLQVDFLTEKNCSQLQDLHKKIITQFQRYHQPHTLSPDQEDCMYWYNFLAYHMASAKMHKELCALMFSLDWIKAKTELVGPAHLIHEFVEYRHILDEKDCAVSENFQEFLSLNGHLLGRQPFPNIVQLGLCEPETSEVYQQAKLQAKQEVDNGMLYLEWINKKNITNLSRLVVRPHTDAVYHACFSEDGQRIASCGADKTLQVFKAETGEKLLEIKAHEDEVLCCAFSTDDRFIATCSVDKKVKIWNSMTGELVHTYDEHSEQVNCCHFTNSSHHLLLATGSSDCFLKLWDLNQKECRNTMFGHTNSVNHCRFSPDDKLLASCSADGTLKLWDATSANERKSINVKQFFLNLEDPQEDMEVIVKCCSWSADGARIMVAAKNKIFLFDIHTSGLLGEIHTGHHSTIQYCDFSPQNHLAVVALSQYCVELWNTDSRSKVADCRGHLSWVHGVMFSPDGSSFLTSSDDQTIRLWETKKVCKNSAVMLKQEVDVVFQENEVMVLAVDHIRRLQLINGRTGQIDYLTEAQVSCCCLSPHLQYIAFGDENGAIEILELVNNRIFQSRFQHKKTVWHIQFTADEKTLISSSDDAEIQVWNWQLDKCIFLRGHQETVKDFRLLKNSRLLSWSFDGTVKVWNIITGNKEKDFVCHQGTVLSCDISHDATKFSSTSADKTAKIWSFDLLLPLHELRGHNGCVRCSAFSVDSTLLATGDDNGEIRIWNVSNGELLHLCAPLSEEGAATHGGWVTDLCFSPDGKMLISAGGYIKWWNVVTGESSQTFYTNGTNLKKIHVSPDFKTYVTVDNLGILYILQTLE

[3] = target: Melanin-concentrating hormone receptor 1 (Homo sapiens, UniProt Q99705); test: Late-stage fluorescence-based counterscreen for antagonists of the G-protein coupled receptor 7 (GPR7): cell-based dose response assay to identify antagonists of the melanin-concentrating hormone receptor 1 (MCHR1) Set 6.; format: functional
[4] = target: T2, Neuropeptides B/W receptor type 1 (Homo sapiens, UniProt P48145); test: GPR7 antagonist potency, late-stage follow-up, cell-based, fluorescence, dose response, set 6 (AID 588583); format: functional
T2 sequence (P48145 whole entry): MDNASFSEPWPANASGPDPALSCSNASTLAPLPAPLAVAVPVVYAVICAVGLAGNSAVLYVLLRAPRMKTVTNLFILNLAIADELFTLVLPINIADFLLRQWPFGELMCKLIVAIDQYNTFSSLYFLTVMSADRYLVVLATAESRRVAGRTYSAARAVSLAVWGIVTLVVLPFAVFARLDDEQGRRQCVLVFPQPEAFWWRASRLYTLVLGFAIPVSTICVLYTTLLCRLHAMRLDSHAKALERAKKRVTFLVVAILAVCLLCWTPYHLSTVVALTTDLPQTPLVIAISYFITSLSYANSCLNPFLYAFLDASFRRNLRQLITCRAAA

[5] = system: Streptococcus sp. 'group A'; test: growth inhibition of control SK(-) GAS strain, dose response, counter-screen for streptokinase expression inhibitor project, luminescence, kanamycin, BacTiterGlo, confirmation (AID 1900); format: functional, organism-based
Streptokinase A = target: T3, Streptokinase A (Streptococcus pyogenes serotype M1, UniProt P10520); test: S. pyogenes streptokinase expression inhibitors, potency, dose response, plasminogen activation absorbance, OD405 (AID 1914); format: functional, Streptococcus pyogenes M1 GAS;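 further: secreted streptokinase activity via plasminogen activation per viability signal from cell pellet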
T3 sequence (P10520 whole entry): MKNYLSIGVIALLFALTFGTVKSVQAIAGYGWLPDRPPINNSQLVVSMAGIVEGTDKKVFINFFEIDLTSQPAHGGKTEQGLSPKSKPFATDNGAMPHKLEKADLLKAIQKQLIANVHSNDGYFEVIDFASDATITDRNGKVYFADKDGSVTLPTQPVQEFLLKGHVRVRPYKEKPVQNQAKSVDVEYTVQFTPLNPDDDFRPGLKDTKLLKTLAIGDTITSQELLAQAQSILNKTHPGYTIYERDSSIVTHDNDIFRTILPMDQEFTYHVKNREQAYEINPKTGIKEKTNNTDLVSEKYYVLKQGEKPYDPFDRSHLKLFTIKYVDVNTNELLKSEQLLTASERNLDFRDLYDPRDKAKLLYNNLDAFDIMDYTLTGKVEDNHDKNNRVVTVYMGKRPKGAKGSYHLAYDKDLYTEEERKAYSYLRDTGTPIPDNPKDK

Streptococcus = test: Group A Streptococcus viability loss, dose response, counter-screen for streptokinase expression inhibitor project, luminescence, BacTiterGlo (AID 1915); format: functional, organism-based;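 further: potency for reduction of bacterial viability or growth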
INS1 = test: beta cell apoptosis inhibitors, cytokine rescue, dose response, luminescence, retest (AID 449756); format: functional, cell-based; conditions: Rattus norvegicus;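 further: cell death triggered by IL-1 beta plus TNF-alpha plus IFN-gamma mixture; protective hits raise ATP signal compared with cytokine alone wells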
[6] = Vero cell cytotoxicity, dose response, cytotoxicity control for M. tuberculosis growth inhibitor project, Vero cells, purified and synthesized compounds, set 5 (AID 504909); format: functional; conditions: Mycobacterium tuberculosis
[7] = HepG2 cell cytotoxicity, cytotoxicity control, set 4 (AID 504910); format: functional; conditions: Mycobacterium tuberculosis
[8] = THP-1 cell cytotoxicity, cytotoxicity control, set 4 (AID 504911); format: functional; conditions: Mycobacterium tuberculosis

Chain of Melanin-concentrating hormone receptor 1 (Q99705 whole entry): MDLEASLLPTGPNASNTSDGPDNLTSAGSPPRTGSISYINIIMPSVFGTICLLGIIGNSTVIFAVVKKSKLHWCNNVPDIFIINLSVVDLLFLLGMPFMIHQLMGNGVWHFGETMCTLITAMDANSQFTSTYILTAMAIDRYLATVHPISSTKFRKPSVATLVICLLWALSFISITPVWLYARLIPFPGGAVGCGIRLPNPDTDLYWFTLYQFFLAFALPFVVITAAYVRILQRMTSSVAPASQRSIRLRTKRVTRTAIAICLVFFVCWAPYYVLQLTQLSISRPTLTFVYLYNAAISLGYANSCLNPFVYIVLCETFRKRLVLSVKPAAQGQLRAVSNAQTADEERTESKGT

O=C(O)C1(Cn2cccn2)CC1
EC50 [1]: > 100 µM (inactive)
EC50 [2]: > 100 µM (inactive)

NC(=O)C(c1ccccc1)c1c(Cl)cnn(Cc2cccc3ccccc23)c1=O (stereo unspecified)
IC50 [3]: > 20 µM (inactive)
IC50 [4]: > 20 µM (inactive)

CC(C)/N=c1\cc2n(-c3ccc(Cl)cc3)c3ccccc3nc-2cc1Nc1ccc(Cl)cc1 [CLOFAZIMINE]
EC50 [5]: 1.86 µM (active)
EC50 (Streptokinase A): 2.28 µM (active)
EC50 (Streptococcus): 36.9 µM (active)
AC50 (INS1): 2.06 µM (active)
CC50 [6]: 10.2 µM (active)
CC50 [7]: 4.7 µM (active)
CC50 [8]: 2.2 µM (active)
